From patent EP0130554A1, “Novel, physiologically active substance, process for production thereof and pharmaceutical composition containing the same” (KYOWA HAKKO KOGYO CO., LTD., priority 1983, dated 1985)

Tests used:
[1] = system: Atria; experiment: Inhibition of isoproterenol-induced positive chronotropic effect in spontaneously beating isolated atria (organ bath); type: cell-based, guinea pigs; conditions: Cavia porcellus, 0.5 h; MY336-a 30 µg/ml, added 30 minutes before isoproterenol hydrochloride 10^-9 g/ml; atrial rate, isolated guinea pig atria; read-out: blocked the positive chronotropic effect induced by isoproterenol hydrochloride
Method: Method: • Atria were rapidly isolated from guinea pigs (body weight: 500 - 700G) and mounted in an organ bath. The bath was filled with 30 ml oxygenated (95% 02, 5% C02) Krebs-Henseleit's solution at 31il°C. Atria were allowed to beat spontaneously and the contractions were isometrically recorded using force- displacement transducers. Resting force was adjusted to 0.5g. Then, atrial rate was measured. Then, a solution of isoproterenol hydrochloride in a very small amount of water was added thereto to make the isoproterenol hydrochloride concentration to be 10-^9 g/ml, and atrial rate was measured.
The solution was discarded and the bath was filled with krebs-Henseleit's solution, and allowed to stand until the atrial rate was brought back.
Then, a solution of MY336-a in a very small amount of 50% ethanol was added thereto to make the MY336-a concentration to be 30 µg/ml, and 30 minutes thereafter, a solution of isoproterenol hydrochloride in a very small amount of water was added thereto to make the isoproterenol hydrochloride concentration to be 10-^9 g/ml, and atrial rate was measured.

[2] = Solubility in various solvents; type: physicochemical
[3] = system: adrenergic receptor; experiment: Agonistic/antagonistic activity on adrenergic receptor

Q: What does the source list for `COc1c(C)cc2c(c1O)C(CO)NC(CO)C2` (stereo not drawn) [MY336-a]?
A: inhibition at 30 µg/mL [1]: 84.9%; Solubility ([2]; in acetone, hexane and ether): sparingly soluble; Solubility ([2]; in acidic water): readily soluble; Solubility ([2]; in water and methanol): soluble; agonistic activity on adrenergic receptor [3]: no agonistic activity; antagonistic activity on adrenergic receptor [3]: has an antagonistic activity
